Assay results: EP0369035A1, “AGENT FOR TREATING PANCREATITIS OR THE LIKE” (priority 1988, dated 1989)
Read-outs that look alike come from different tables or passages of the source.

How the values were obtained:
[1] = target: T1, human plasmin (Homo sapiens, UniProt P00747); experiment: Anti-plasmin activity: inhibition of S-2251 degradation; type: biochemical
T1 construct: 50 µl of 0.2 casein units/ml of human plasmin
Description: ii) Assay method of inhibition of S-2251 degradation
The test substance was dissolved in a 0.05 M Tris-HC1 (pH7.4) buffer to make a total volume of 400 µl, and 50 µl of a 3 mM S-2251 solution was added to the solution. The mixture was incubated at 37°C for 5 minutes in an incubator, and after the addition of 50 µl of 0.2 casein units/ml of human plasmin, and incubation at 37°C for 4 minutes, the reaction was terminated by an addition of 50 µl of 50% acetic acid.

[2] = target: T1, human plasmin; experiment: Anti-plasmin activity: inhibition of fibrinolysis (fibrin clot lysis time); type: biochemical
[3] = target: T2, human plasma kallikrein (Homo sapiens, UniProt P03952); experiment: Anti-plasma kallikrein activity: inhibition of S-2302 degradation; type: biochemical
T2 construct: 50 µl of 0.12 units/ml human plasma kallikrein solution
T2 sequence (P03952 391-638 limits assumed): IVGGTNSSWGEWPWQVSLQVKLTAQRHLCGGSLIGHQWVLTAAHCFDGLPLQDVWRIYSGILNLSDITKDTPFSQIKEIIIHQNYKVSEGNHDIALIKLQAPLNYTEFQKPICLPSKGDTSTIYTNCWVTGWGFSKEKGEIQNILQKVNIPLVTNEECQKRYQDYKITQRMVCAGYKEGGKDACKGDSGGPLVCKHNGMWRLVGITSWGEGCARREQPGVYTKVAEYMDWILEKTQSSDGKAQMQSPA
T2 sequence (P03952 20-390 partner limits assumed): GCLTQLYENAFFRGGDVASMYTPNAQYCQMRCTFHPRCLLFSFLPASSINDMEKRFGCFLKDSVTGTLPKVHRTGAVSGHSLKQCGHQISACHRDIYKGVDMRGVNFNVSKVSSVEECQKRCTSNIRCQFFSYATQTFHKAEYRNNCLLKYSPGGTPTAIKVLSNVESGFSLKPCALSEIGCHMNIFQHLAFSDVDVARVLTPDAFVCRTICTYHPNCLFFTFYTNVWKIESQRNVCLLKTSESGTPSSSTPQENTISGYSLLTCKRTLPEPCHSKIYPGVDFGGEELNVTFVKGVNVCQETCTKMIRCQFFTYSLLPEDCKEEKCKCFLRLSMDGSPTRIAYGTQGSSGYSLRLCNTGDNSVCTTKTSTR
Description: 2) Assay of anti-plasma kallikrein activity Assay method of inhibition of S-2302 degradation
The test substance was dissolved in a 0.05 M Tris-HC1 (pH 7.8) buffer to make a total volume of 400 µl, and 50 µl of a 2 mM S-2302 solution was added to the solution. After incubation at 37°C for 5 minutes in an incubator, an addition of 50 µl of 0.12 units/ml human plasma kallikrein solution, and incubation at 37°C for 5 minutes, the reaction was terminated by an addition of 50 µl of 50% acetic acid.

[4] = target: human urokinase (Homo sapiens, UniProt P00749); experiment: Anti-urokinase activity: inhibition of S-2444 degradation; type: biochemical; conditions: substrate S-2444, 37°C, pH 8.8; read-out: Urokinase S-2444 (I50)
Description: 3) Assay of anti-urokinase activity Assay method of inhibition of S-2444 degradation
The test substance was dissolved in a 0.05 M Tris-HC1 (pH 8.8) buffer to make a total volume of 400 µl, and 50 µl of a 1 mM S-2444 solution was added to the mixture. After incubation at 37°C for 5 minutes in an incubator, an addition of 50 µl of 500 units/ml human urokinase solution, and incubation at 37°C for 5 minutes, the reaction was terminated by an addition of 50 µl of 50% acetic acid.

[5] = tested on: experimental pancreatitis; experiment: Effect on experimental pancreatitis (sodium taurochorate + trypsin into the common bile duct), survival ratio; type: in vivo, SD-rats; parameters: Effect on experimental pancreatitis (100 mg/kg p.o.) After 24 hours / Effect on experimental pancreatitis (100 mg/kg p.o.) After 48 hours / Effect of existing control drug on experimental pancreatitis After 24 hours: unit not given here; conditions: rat; for Effect on experimental pancreatitis Survival ratio(%) After 24 hours / Effect on experimental pancreatitis Survival ratio(%) After 48 hours: 80 μg/kg/min. x 80 min. continuous infusion; for Effect on experimental pancreatitis (100 mg/kg p.o.) After 24 hours / Effect on experimental pancreatitis (100 mg/kg p.o.) After 48 hours / Effect of existing control drug on experimental pancreatitis After 24 hours: survival ratio; for Effect on experimental pancreatitis (100 mg/kg p.o.) After 24 hours / Effect on experimental pancreatitis (100 mg/kg p.o.) After 48 hours: 100 mg/kg p.o. 30 minutes before pancreatitis
Description: [II] Effect on experimental pancreatitis
SD-rats, body weight of about 200 g were, starved overnight, and 10 to 24 animals were used in one group. Sodium pentobarbital was intraperioneally administered to anesthetize each rat, and then a cannula was inserted to the femoral vein for the administration of the test substance. After abdominal surgery, the bile duct was blocked at a part thereof proximate to the liver, by a clip, a polyethylene tube was inserted to the common bile duct at a part thereof most proximate to the duodenum, and 0.1 ml of solution containing 2 mg sodium taurochorate and 1000 U trypsin dissolved in physiological saline was injected retrogrodely. After removal of the clip and tube, the common bile duct was ligated and the abdomen was closed. Note, the test substance was dissolved in an injective 5% glucose solution, and in the case of a continuous infusion, the solution was administered over 80 minutes starting from 10 minutes before the generation of pancreatitis. In the case of oral administration, the test substance was administered through an oral catheter 30 minutes before the generation of pancreatitis. After 24 hours and 48 hours from the generation of pancreatitis, the survival ratio of the animals was calculated and compared with a control group.

[6] = tested on: experimental DIC; experiment: Effect on experimental DIC and MOF (endotoxin-induced); type: in vivo, SD-rats; conditions: Dose 10 μg/kg/min infusion, rat, 4 hours after endotoxin 10 mg/kg
Description: [III] Effect on experimental DIC
SD-rats, body weight of about 200 g, were starved overnight. Sodium pentobarbital was intraperioneally administered to anesthetize a rat, and then a cannula was inserted to the femoral vein, and the test substance dissolved in an injective 5% glucose solution was continually infused. Then, 10 minutes from the start of the injection, endotoxin (E. coli 0127:B8, Difco, U.S.) dissolved in physiological saline was injected through the tail vein to an amount of 10 mg/kg body weight, and 4 hours from the administration of endotoxin, the abdomen was opened, blood was obtained from the abdominal aorta, and platelets (Plt), fibrinogen (Fbg), fibrin degradation product (FDP), glutamic oxaloacetic transamirase (GOT), creatinine phosphokinase (CPK), and blood urin nitrogen (BUN) were measured.

[7] = tested on: experimental shock; experiment: Effect on experimental shock (endotoxin-induced), survival ratio; type: in vivo, ICR-mice; conditions: dose of 30 mg/kg intraperitoneally 15 minutes before endotoxin 40 mg/kg, mouse
Description: [IV] Effect on experimental shock
ICR-mice, body weight of about 25 g, were starved overnight. The test substance was dissolved in an injective 5% glucose solution and intraperioneally administered, and 15 minutes later, endotoxin (E. coli 0127:B8, Difco, U.S.) dissolved in a physiological saline was intraperioneally administered to an amount of 40 mg/kg body weight.

[8] = in vivo; conditions: mouse, intravenous, ICR male mice, up-and-down method, read-out: Acute toxicity (LD50)
Description: ICR male mice 5 to 10 weeks old were used. The test substance was dissolved in a 5% dimethylsulfoxide aqueous solution, and the solution was intravenously administered in an amount of 0.1 to 0.2 ml/10 g body weight. An LD50 value was calculated by up-and-down method.

[9] = Measurement of half life in blood; type: in vivo; conditions: rat, iv, administered to the tail vein, SD-rats, plasma, HPLC
Description: [VI] Measurement of half life in blood
SD-rats 6 to 7 weeks old were used. The test substance was dissolved in an injective 5% glucose solution and administered to the tail vein. After the administration, blood samples were periodically obtained from the great vein and placed into heparinized test tubes. Plasma was separated by centrifugation and the test substance was extracted with ethyl acetate. After removal of the solvent, the residue was dissolved in 200 µl of methanol, and analyzed by high performance liquid chromatography. From the change of the concentration of the test substance in blood with time, a half life thereof in blood was calculated.

[10] = target: T3, bovine factor Xa (Bos taurus, UniProt P00743); experiment: Anti-FXa activity: inhibition of S-2222 degradation; type: biochemical
T3 construct: 0.05 ml of 0.3 vial/ml bovine factor Xa
T3 sequence (P00743 234-492 limits assumed): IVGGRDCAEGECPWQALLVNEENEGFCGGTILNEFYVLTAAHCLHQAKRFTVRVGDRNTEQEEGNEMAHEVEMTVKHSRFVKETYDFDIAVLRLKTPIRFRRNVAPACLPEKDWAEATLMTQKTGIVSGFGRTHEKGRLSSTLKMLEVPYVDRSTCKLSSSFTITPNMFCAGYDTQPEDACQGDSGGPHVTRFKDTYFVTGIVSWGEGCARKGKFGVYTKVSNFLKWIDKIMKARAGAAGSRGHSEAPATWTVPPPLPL
T3 sequence (P00743 41-180 partner limits assumed): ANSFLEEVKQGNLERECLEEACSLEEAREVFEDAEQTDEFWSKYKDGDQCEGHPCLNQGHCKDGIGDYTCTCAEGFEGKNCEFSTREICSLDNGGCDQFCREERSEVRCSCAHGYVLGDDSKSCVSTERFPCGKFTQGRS
Description: 4) Assay of anti-FXa activity Assay method of inhibition of S-2222 degradation
To 0.4 ml of the test substance dissolved in a 0.05 M Tris-HC1 (pH 8.3) buffer is added 0.05 ml of 3 mM S-2222 solution, and after incubation at 37°C for about 4 minutes, an addition of 0.05 ml of 0.3 vial/ml bovine factor Xa, and a reaction at 37°C for 4 minutes, the - reaction was terminated by adding 0.05 ml of 50% acetic acid.

[11] = substrate S-2251, 37°C, pH7.4, read-out: Plasmin S-2251 (I50)
[12] = concentration giving a fibrin clot lysis time twice that of control, 37°C, pH7.4, read-out: Plasmin Fibrin (I50)
[13] = substrate S-2302, 37°C, pH 7.8, read-out: Plasma kallikrein S-2302 (I50)
[14] = substrate S-2222, 37°C, pH 8.3, read-out: FXa S-2222 (I50)

T1 sequence (P00747 581-810 limits assumed): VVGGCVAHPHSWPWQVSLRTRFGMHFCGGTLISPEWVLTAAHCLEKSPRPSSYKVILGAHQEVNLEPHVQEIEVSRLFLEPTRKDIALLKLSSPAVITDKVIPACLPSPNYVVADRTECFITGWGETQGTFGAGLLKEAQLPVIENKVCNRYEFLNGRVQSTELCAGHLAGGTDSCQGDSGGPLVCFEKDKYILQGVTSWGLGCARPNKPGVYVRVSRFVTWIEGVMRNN
T1 sequence (P00747 97-580 partner limits assumed): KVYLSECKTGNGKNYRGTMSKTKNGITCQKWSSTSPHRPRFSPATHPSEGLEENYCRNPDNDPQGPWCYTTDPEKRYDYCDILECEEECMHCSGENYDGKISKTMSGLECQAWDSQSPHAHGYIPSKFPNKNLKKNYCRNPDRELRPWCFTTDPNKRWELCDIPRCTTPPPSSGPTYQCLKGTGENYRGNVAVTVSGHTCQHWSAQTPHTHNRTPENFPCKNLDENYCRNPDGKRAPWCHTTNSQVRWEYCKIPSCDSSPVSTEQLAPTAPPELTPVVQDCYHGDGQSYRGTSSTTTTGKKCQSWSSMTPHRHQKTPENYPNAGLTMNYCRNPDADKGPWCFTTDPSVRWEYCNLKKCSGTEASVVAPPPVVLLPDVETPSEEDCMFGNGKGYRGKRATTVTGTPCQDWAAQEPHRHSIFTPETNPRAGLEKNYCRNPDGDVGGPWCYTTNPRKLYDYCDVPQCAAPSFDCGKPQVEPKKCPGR

SMILES	IC50 [1, 11] [µM]	IC50 [2, 12] [µM]	IC50 [3, 13] [µM]	IC50 [4] [µM]	Effect on experimental pancreatitis Survival ratio(%) After 24 hours [5] [%]	Effect on experimental pancreatitis Survival ratio(%) After 48 hours [5] [%]	Effect on experimental shock (Survival ratio (%) after 24 hours) [7] [%]	LD50 [8] [mg/kg]	half-life [9] [min]	IC50 [10, 14] [µM]	also measured
NC[C@H]1CC[C@H](C(=O)N[C@@H](Cc2ccc(OCc3ccccc3)cc2)C(=O)Nc2cccnc2)CC1 [Compound 1]	6.1	2.9	1.7	45	55.5	29.1	82	70	15.3		BUN [6]: 28 ± 3 mg/dL; FDP [6]: 16 to 32 µg/mL; Fbg [6]: 146 ± 7 mg/dL; GOT [6]: 299 ± 63 U/ml; Plat [6]: 65 ± 6 x 10^4/μl
CC(=O)c1ccc(NC(=O)[C@H](Cc2ccccc2)NC(=O)[C@H]2CC[C@H](CN)CC2)cc1 [Compound 2]	36	21	0.85	58			50	50		540	
CC(=O)c1ccc(NC(=O)[C@H](Cc2ccc(OCc3cccc(Cl)c3)cc2)NC(=O)[C@H]2CC[C@H](CN)CC2)cc1 [Compound 3]	0.8	0.1	0.38	40			67	> 100		35	BUN [6]: 40 ± 5 mg/dL; FDP [6]: 8 to 64 µg/mL; Fbg [6]: 160 ± 13 mg/dL; GOT [6]: 133 ± 4 U/ml; Plat [6]: 78 ± 7 x 10^4/μl; CPK ([6]; Table 5-1): 14 ± 2 U/1
NC[C@H]1CC[C@H](C(=O)N[C@@H](Cc2ccc(OCc3ccccc3)cc2)C(=O)Nc2ccncc2)CC1 [Compound 4]	3.4	0.7	1.2	32			82	85		90	
NC[C@H]1CC[C@H](C(=O)N[C@@H](Cc2ccc(OCc3ccccc3)cc2)C(=O)Nc2ccc(CC(=O)O)cc2)CC1 [Compound 8]	25	9.2	3	260	58.3	58.3		> 100	10.6	290	Effect on experimental pancreatitis (100 mg/kg p.o.) After 24 hours [5]: 58.3; Effect on experimental pancreatitis (100 mg/kg p.o.) After 48 hours [5]: 33.3
NCC1CCC(C(=O)NC(Cc2ccc(OCc3ccccn3)cc2)C(=O)Nc2ccc(C(=O)O)cc2)CC1 (centres unmarked) [Compound 20]	65	32	1.4		58.3	41.7		> 100	14	700	Effect on experimental pancreatitis (100 mg/kg p.o.) After 24 hours [5]: 58.3; Effect on experimental pancreatitis (100 mg/kg p.o.) After 48 hours [5]: 41.7
CCOC(=O)c1ccc(OC(=O)CCCCCNC(=N)N)cc1 [FOY, gabexate mesilate, reference compound]				1.3				248			IC50 [1]: 3.4 µM; IC50 [2]: 3 µM; IC50 [3]: 1.3 µM; IC50 [10]: 43 µM; Effect of existing control drug on experimental pancreatitis After 24 hours ([5]; 250 μg/kg/min x 80 min): 16.6; Effect of existing control drug on experimental pancreatitis After 24 hours ([5]; 1000 μg/kg/min x 80 min): 42.0; half-life ([9]; in vivo): 0.4 min
